Results as given in patent US20190380954A1, “Bone Regeneration Agent” (Kao Corporation, priority 2017, published 2019).

Experiments:
[1] = tested on: gums; conditions: niacin or an ester compound thereof, intraoral composition; cited from earlier work
[2] = tested on: alveolar bone of rats with ligature-induced periodontitis; conditions: niacin 25 mM in PBS, 100 μL dropped onto right and left second molars twice a day for 4 weeks after ligature removal; compared to PBS group; base line group 0%, Sham group 100%; Tukey, 5%
Protocol: Twenty-eight 8-week-old male Wister Rats were purchased from Japan SLC, Inc., and the rats were acclimated for one week. Subsequently, the body weights of the rats were measured, and the rats were assigned into four groups (base line group, Sham group, PBS group, and niacin group) such that the average body weights of the groups would be even.
Under isoflurane inhalation anesthesia, No. 3-0 nylon sutures (manufactured by Akiyama Seisakusho Co., Ltd.) were ligated to the right and left second molars in the upper jaw of the rats of the base line group, PBS group, and niacin group to induce periodontitis, and the rats of the respective groups were reared for two weeks. […]
After rearing for two weeks, the ligatures (No. 3-0 nylon sutures described above) were excised from the rats of the PBS group and the niacin group. For the base line group, the rats were euthanized by bleeding from the abdominal aorta under isoflurane inhalation anesthesia, and the alveolar bone resorption depths of the respective groups were measured by the following method. […]
The alveolar bone regeneration amount of the base line group was designated as 0%, and the alveolar bone regeneration amount of the Sham group was designated as 100%. Thus, the alveolar bone regeneration amounts of the PBS group and the niacin group were calculated from the average alveolar bone resorption depth thus calculated. […]

[3] = tested on: periodontal disease model rat; conditions: suppression of alveolar bone resorption is not reported; cited from earlier work
[4] = tested on: gums / periodontal pocket; conditions: blood circulation enhancers such as vitamin E; cited from earlier work

In the case of `O=C(O)c1cccnc1` [niacin, niacin (nicotinic acid)], the “blood circulation in the gums” value [1] is listed as “promotes blood circulation in the gums” and the “regeneration amount of the alveolar bone” value [2] is listed as “significantly increased”.

For vitamin E, the inflammatory response [3] is listed as “suppresses inflammatory response”, the “Gingival index (swelling of gums)” value [4] is listed as “do not improve” and the “Periodontal probing depth (depth of periodontal pocket, reflecting extent of alveolar bone resorption)” value [4] is listed as “do not improve”.
